In US10765672B2, “Pharmaceutical formulations of a HIF hydroxylase inhibitor” (FibroGen, Inc., priority 2013, dated 2020):

Assay: Solid state sunlight exposure of Compound A powder, reverse phase HPLC
Type: physicochemical
Conditions: for purity value as measured by reverse phase HPLC: Compound A dry powder
Protocol: Approximately 500 mg of Compound A dry powder was placed in a 1-gallon polyethylene bag and exposed to sunlight for two months consecutively during daylight hours. The powder was in a very thin layer and the bag was shaken often to ensure that all the powder and not just the top layer was exposed to sunlight. A control sample of Compound A powder was stored in an amber vial in the dark for the same amount of time for comparison purposes. […] The light-exposed sample and the control sample were analyzed by HPLC to evaluate differences in their composition. The HPLC method used a reverse phase Zorbax Eclipse XDB-C8, 3.5 μm, 4.6×150 mm column. The mobile phase was comprised of water and acetonitrile mixtures acidified with trifluoroacetic acid. Gradient elution with increasing acetonitrile provided chromatograms of the control sample of Compound A (FIG. 1, before light exposure) and the light-exposed sample of Compound A (FIG. 1, after light exposure) with UV detection at 230 nm.
After exposure to sunlight, a new peak appeared in the chromatogram evidencing a new molecule.

purity value as measured by reverse phase HPLC (after exposure to sunlight for two months): 98.4%
purity value as measured by reverse phase HPLC (before exposure to sunlight): 99.1%
visual inspection (colour) (control sample stored in amber vial in the dark, two months): yellow
visual inspection (colour) (light-exposed sample, two months sunlight): off-white
SMILES: Cc1nc(C(=O)NCC(=O)O)c(O)c2ccc(Oc3ccccc3)cc12 [Compound A, [(4-hydroxy-1-methyl-7-phenoxy-isoquinoline-3-carbonyl)-amino]-acetic acid]
